Measurements from paper PMC6193035, “Novel small molecules affecting cell membrane as potential therapeutics for avian pathogenic Escherichia coli” (Scientific Reports, 2018).
Values after ≈ are worked out from the molar mass of the structure shown.

Tests used:
APEC O78 [1] = experiment: Bacterial cytological profiling by confocal microscopy; format: cell-based, Escherichia coli; settings: 2X MBC, 2 h
Description: Confocal microscopy was used for bacterial cytological profiling (BCP) to identify the cellular pathways targeted by SMs as described previously. […] After incubation, treated cultures were centrifuged, washed, and resuspended in 100 µL PBS. FM4-64 (#T13320 Molecular Probes/Invitrogen) (1 µg/mL) and SYTO-9 (#S34854 Molecular Probes/Invitrogen) (5 µM) were added to the bacterial cultures and incubated for 45 mins at room temperature with shaking at 150 rpm. Cultures were then centrifuged, washed, and resuspended in PBS to 1/10th volume of the original cultures.

APEC O109 = experiment: MIC and MBC determination in M63 media; format: cell-based; settings: Escherichia coli
APEC O35 = experiment: MIC and MBC determination in M63 media; format: cell-based; settings: Escherichia coli
APEC O78 [2] = experiment: Crystal violet (CV) uptake assay; format: cell-based, Escherichia coli; settings: 2X MBC, 30 mins; P < 0.05, Student's t-test
Description: Membrane permeability assays (crystal violet (CV) uptake and loss of 260/280 nm absorbing materials) were conducted as described previously. […] CV uptake was measured using the formula: (OD DMSO − OD SM/OD DMSO × 100). Two independent experiments in duplicates were conducted.

[3] = system: intracellular APEC O1 in HD11 cells; experiment: Intracellular survival assay; format: cell-based, Escherichia coli; settings: for minimal effective concentration: Escherichia coli, O1, HD11, 6 h treatment, read-out: SMs intracellular APEC clearance concentration; for concentration at which the SM significantly (P < 0.01) reduced intracellular APEC (superscript of t-statistic): O1, HD11, 6 h
Description: (§1) Intracellular survival assay was conducted as described previously[28],[29] to determine the effect of cidal SMs on APEC survival in phagocytic (HD11, THP-1) and non-phagocytic (Caco-2) cells. Briefly, mid-logarithmic phase grown APEC O78, O1, and O2 were washed and adjusted to 1 × 10^7 CFU/mL in cell culture incomplete media (no FBS and antibiotics). One-hundred microlitres adjusted APEC suspension was added at multiplicity of infection (MOI) 10 to wells of 96-well cell culture plate containing cultured macrophage (HD11, THP-1) and epithelial cells (Caco-2) and incubated for 1 h and 3 h, respectively. […] The cells were then lysed with 100 µL of 0.1% Triton X-100 for 5 mins, serially diluted, and plated on LB agar plate to enumerate viable bacteria. The intracellular bacteria in SMs treated wells were compared with DMSO (1%) treated wells. Two independent experiments in duplicate wells for each concentration of SMs were conducted.

[4] = system: intracellular APEC O1 in THP-1 cells; experiment: Intracellular survival assay; format: cell-based, Escherichia coli; settings: for minimal effective concentration: Escherichia coli, O1, THP-1, 6 h treatment, read-out: SMs intracellular APEC clearance concentration; for concentration at which the SM significantly (P < 0.01) reduced intracellular APEC (superscript of t-statistic): O1, THP-1, 6 h
Description: as §1

[5] = system: intracellular APEC O2 in THP-1 cells; experiment: Intracellular survival assay; format: cell-based, Escherichia coli; settings: for minimal effective concentration: Escherichia coli, O2, THP-1, 6 h treatment, read-out: SMs intracellular APEC clearance concentration; for concentration at which the SM significantly (P < 0.01) reduced intracellular APEC (superscript of t-statistic): O2, THP-1, 6 h
Description: as §1

[6] = system: intracellular APEC O78 in Caco-2 cells; experiment: Intracellular survival assay; format: cell-based, Escherichia coli; settings: for minimal effective concentration: Escherichia coli, O78, Caco-2, 6 h treatment, read-out: SMs intracellular APEC clearance concentration; for intracellular APEC clearance concentration as multiple of MIC (superscript): O78, Caco-2; for concentration at which the SM significantly (P < 0.01) reduced intracellular APEC (superscript of t-statistic): O78, Caco-2, 6 h
Description: as §1

[7] = system: intracellular APEC O1 in Caco-2 cells; experiment: Intracellular survival assay; format: cell-based, Escherichia coli; settings: for minimal effective concentration: Escherichia coli, O1, Caco-2, 6 h treatment, read-out: SMs intracellular APEC clearance concentration; for concentration at which the SM significantly (P < 0.01) reduced intracellular APEC (superscript of t-statistic): O1, Caco-2, 6 h
Description: as §1

[8] = system: intracellular APEC O2 in HD11 cells; experiment: Intracellular survival assay; format: cell-based, Escherichia coli; settings: for minimal effective concentration: Escherichia coli, O2, HD11, 6 h treatment, read-out: SMs intracellular APEC clearance concentration; for intracellular APEC clearance concentration as multiple of MIC (superscript): O2, HD11; for concentration at which the SM significantly (P < 0.01) reduced intracellular APEC (superscript of t-statistic): O2, HD11, 6 h
Description: as §1

[9] = system: intracellular APEC O78 in HD11 cells; experiment: Intracellular survival assay; format: cell-based, Escherichia coli; settings: for minimal effective concentration: Escherichia coli, O78, HD11, 6 h treatment, read-out: SMs intracellular APEC clearance concentration; for intracellular APEC clearance concentration as multiple of MIC (superscript): O78, HD11; for concentration at which the SM significantly (P < 0.01) reduced intracellular APEC (superscript of t-statistic): O78, HD11, 6 h
Description: as §1

[10] = system: intracellular APEC O78 in THP-1 cells; experiment: Intracellular survival assay; format: cell-based, Escherichia coli; settings: for minimal effective concentration: Escherichia coli, O78, THP-1, 6 h treatment, read-out: SMs intracellular APEC clearance concentration; for intracellular APEC clearance concentration as multiple of MIC (superscript): O78, THP-1; for concentration at which the SM significantly (P < 0.01) reduced intracellular APEC (superscript of t-statistic): O78, THP-1, 6 h
Description: as §1

[11] = system: intracellular APEC O2 in Caco-2 cells; experiment: Intracellular survival assay; format: cell-based, Escherichia coli; settings: for minimal effective concentration: Escherichia coli, O2, Caco-2, 6 h treatment, read-out: SMs intracellular APEC clearance concentration; for concentration at which the SM significantly (P < 0.01) reduced intracellular APEC (superscript of t-statistic): O2, Caco-2, 6 h
Description: as §1

[12] = system: biofilm embedded APEC O78; experiment: MBEC High-throughput (HTP) assay; format: cell-based, Escherichia coli; settings: 18 h challenge in M63 media
Description: The effect of cidal SMs against biofilm embedded APEC was determined using MBEC High-throughput (HTP) assay (Innovotech Inc., AB, Canada)[22]. Briefly, 150 μL of 0.05 OD600 adjusted APEC O78 culture was aliquoted into each well of the MBEC device containing polystyrene pegs and incubated at 37 °C for 36 h in LB media under stationary condition. […] The plate was incubated in the dark for 18 h at 37 °C with rotation at 110 rpm. The DMSO (1%) and […] media were used as positive and negative controls, respectively. Following incubation, MIC of SMs in challenged plate was recorded. The SMs exposed pegs were then transferred to a new 96-well plate containing PBS and sonicated for 30 mins (Aquasonic ultrasonic cleaner, VWR) to disrupt the biofilm. The sonicated suspensions were ten-fold serially diluted and plated on LB agar plate. Biofilm embedded APEC bacteria were enumerated and minimum biofilm eradication concentration (MBEC) of SMs were determined as described previously. Two independent experiments were conducted.

APEC O1-63 = experiment: MIC and MBC determination in M63 media; format: cell-based; settings: Escherichia coli; APEC O1-63, M63 media
[13] = system: intracellular APEC O78, O2, and O1 in infected Caco-2, HD11, and THP1 cells; experiment: Intracellular survival assay, statements over all serotypes and cells; format: cell-based, Escherichia coli; settings: for minimal effective concentration: Escherichia coli, 6 h, O78, O2 and O1, Caco-2, HD11, THP-1, read-out: concentration clearing intracellular APEC
Description: as §1

Compound	cytological profile (FM4-64 / SYTO-9 staining) (APEC O78 [1])	MBC (APEC O109) [µM]	MIC (APEC O109) [µM]	MBC (APEC O35) [µM]	MIC (APEC O35) [µM]	minimal effective concentration [3] [µM]	concentration at which the SM significantly (P < 0.01) reduced intracellular APEC (superscript of t-statistic) [3]	minimal effective concentration [4] [µM]	concentration at which the SM significantly (P < 0.01) reduced intracellular APEC (superscript of t-statistic) [4]	minimal effective concentration [5] [µM]	concentration at which the SM significantly (P < 0.01) reduced intracellular APEC (superscript of t-statistic) [5]	minimal effective concentration [6] [µM]	intracellular APEC clearance concentration as multiple of MIC (superscript) [6]	concentration at which the SM significantly (P < 0.01) reduced intracellular APEC (superscript of t-statistic) [6]	minimal effective concentration [7] [µM]	concentration at which the SM significantly (P < 0.01) reduced intracellular APEC (superscript of t-statistic) [7]	minimal effective concentration [8] [µM]	intracellular APEC clearance concentration as multiple of MIC (superscript) [8]	concentration at which the SM significantly (P < 0.01) reduced intracellular APEC (superscript of t-statistic) [8]	minimal effective concentration [9] [µM]	other results
COc1cc(CNCCc2ccc3ccccc3c2)ccc1OCC(O)CN1CCCC1 (stereo not shown) [SM2]	bright red foci at random positions throughout the cell indicating membrane defects (membrane pore formers)	200 (≈ 86.9 µg/mL)	100 (≈ 43.5 µg/mL)	200 (≈ 86.9 µg/mL)	100 (≈ 43.5 µg/mL)	200	a (0.5X MIC)	200	a (0.5X MIC)	100	b (1X MIC)	100	a (1X MIC)	a (0.5X MIC)	> 200	a (0.5X MIC)	200	b (2X MIC)	a (0.5X MIC)	100	uptake of crystal violet compared with DMSO (APEC O78 [2]): increased the uptake of crystal violet; intracellular APEC clearance concentration as multiple of MIC (superscript) ([4]; O1, THP-1): b (2X MIC); intracellular APEC clearance concentration as multiple of MIC (superscript) [9]: a (1X MIC); concentration at which the SM significantly (P < 0.01) reduced intracellular APEC (superscript of t-statistic) [9]: a (0.5X MIC); minimal effective concentration [10]: 100 µM; intracellular APEC clearance concentration as multiple of MIC (superscript) [10]: a (1X MIC); concentration at which the SM significantly (P < 0.01) reduced intracellular APEC (superscript of t-statistic) [10]: a (0.5X MIC); minimal effective concentration [11]: > 200 µM; concentration at which the SM significantly (P < 0.01) reduced intracellular APEC (superscript of t-statistic) [11]: b (1X MIC); MBEC as multiple of MIC (superscript) [12]: b (1X MIC); MBC (APEC O1-63): 250 µM (≈ 109 µg/mL); MIC (APEC O1-63): 200 µM (≈ 86.9 µg/mL); minimal effective concentration [13]: ≥ 100 µM
CC1CCC(C(C)C)C(OC(=O)Cn2c[n+](CC(=O)OC3CC(C)CCC3C(C)C)c3ccccc32)C1 (stereo not shown) [SM4]	absence of FM4-64 stained membrane (membrane disruptors)	25	25	25	25	50	b (1X MIC)	> 100	b (1X MIC)	100	b (1X MIC)	50	b (2X MIC)	a (0.5X MIC)	100	c (2XMIC)	50	b (2X MIC)	a (0.5X MIC)	50	intracellular APEC clearance concentration as multiple of MIC (superscript) ([7]; O1, Caco-2): c (4X MIC); intracellular APEC clearance concentration as multiple of MIC (superscript) [9]: b (2X MIC); concentration at which the SM significantly (P < 0.01) reduced intracellular APEC (superscript of t-statistic) [9]: a (0.5X MIC); minimal effective concentration [10]: 50 µM; intracellular APEC clearance concentration as multiple of MIC (superscript) [10]: b (2X MIC); concentration at which the SM significantly (P < 0.01) reduced intracellular APEC (superscript of t-statistic) [10]: a (0.5X MIC); minimal effective concentration [11]: 100 µM; intracellular APEC clearance concentration as multiple of MIC (superscript) ([11]; O2, Caco-2): c (4X MIC); concentration at which the SM significantly (P < 0.01) reduced intracellular APEC (superscript of t-statistic) [11]: c (2XMIC); MBEC as multiple of MIC (superscript) [12]: a (0.5X MIC); MBC (APEC O1-63): 50 µM; MIC (APEC O1-63): 25 µM; minimal effective concentration [13]: ≤ 100 µM; ranking in clearing intracellular APEC ([13]; all tested serotypes and cells): most effective SMs in clearing intracellular APEC serotypes in all tested cells
